Consider 14 compounds from patent publication US20220388969A1, “SUBSTITUTED 3,4-DIHYDROQ[…] THE TREATMENT AND PROPHYLAXIS OF HEPATITIS B VIRUS INFECTION” (priority 2019, published 2022).

Experiment [1] deals with HBeAg level in HepDES19 cells (surrogate marker for HBV cccDNA). The experiment is described as follows: Engineered HepDES19 primary screen assay (HBeAg as surrogate marker for cccDNA). In kind it is cell-based. The conditions noted are these: Hepatitis B virus, 120 h; HepDES19 cells, 5 days incubation with compound, HBeAg ELISA; read-out: IC50 (HBeAg level, HepDES19 primary screen assay). The text has this:
The assay was employed to screen for novel cccDNA inhibitors. HepDES19 is a cccDNA-producing cell line. In this cell line, HBeAg in the cell culture supernatant as surrogate marker, as HBeAg production depends on cccDNA level and activity. HepDES19 is an engineered cell line which contains a 1.1 unit length HBV genome, and pgRNA transcription from the transgene is controlled by Tetracycline (Tet). In the absence of Tet, pgRNA transcription will be induced, but HBV e antigen (HBeAg) could not be produced from this pgRNA due to very short leader sequence before the HBeAg start codon and the start codon is disrupted. Only after cccDNA is formed, the missing leader sequence and start codon mutation would be restored from the 3′-terminal redundancy of pgRNA, and then HBeAg could be synthesized. Therefore, HBeAg could be used as a surrogate marker for cccDNA (Zhou, T. et al., Antiviral Res.(2006), 72(2), 116-124; Guo, H. et al., J. Virol. (2007), 81(22), 12472-12484).
HepDES19 cells were seeded at 2×10^6 cells per T150 flask and cultured with the culture medium (Dulbecco's Modified Eagle Medium: Nutrient Mixture F-12 [DMEM-F12, Gibco Cat. 11320-82], 10% Fetal Bovine Serum [FBS, Clontech Cat. 631101], 0.1 mM Non-Essential Amino Acids Solution [NEAA, Gibco Cat. 11140-050], 50 μg/mL Penicillin-Streptomycin [PS, Invitrogen Cat. 15140-163], 500 μg/mL Geneticin [G418, Invitrogen Cat. 10131-027]) containing 3 μg/mL Tet (Sigma, Cat. 87128) for 5 days. Cells were then seeded at 4×10^6 cells per T150 in the same culture medium as described above in the absence of Tet for 8 days. Cells were then harvested and frozen at density of 2×10^6 cells per mL. For compound testing, the frozen cells were thawed and seeded into 96-well plates at a density of 6 ×10^4 cells per well. At 24hours after seeding, half log serial dilutions of compounds made with Dimethyl sulfoxide (DMSO, Sigma, Cat. D2650) were further diluted with the same culture medium as described above before they were added to the cells to reach desired final compound concentrations and 1% DMSO concentration. Plates were then incubated at 37° C. for another 5 days before measurement of HBeAg level and cell viability. Intracellular HBeAg level were measured with enzyme-linked immunosorbent assay (ELISA) kit (Shanghai Kehua Diagnostic Medical Products Co., Ltd). Cell viability was assessed using Cell Counting Kit-8 (DonJindo, Cat. CK04-20). IC50 values were derived from the dose-response curve using 4 parameter logistic curve fit method.
The compounds of the present invention were tested for their capacity to inhibit extracellular HBeAg level as described herein.
Background: ELISA stands for enzyme-linked immunosorbent assay.

The subject of experiment [2] is HBsAg in HBV-infected primary human hepatocytes. Put plainly: Cryopreserved primary human hepatocytes (PHH) HBV infection assay, extracellular HBsAg. The experiment is classed as cell-based. The conditions noted are these: Hepatitis B virus, Hepatocyte, 216 h, read-out: HBsAg IC50. As to the method:
This assay is used to confirm the anti-HBV effect of the compounds in HBV PHH infection assay. Cryopreserved PHH (BioreclamationlVT, Lot YJM) was thawed at 37° C. and gently transferred into pre-warmed InVitroGRO HT medium (BioreclamationIVT, Cat. S03317). The mixture was centrifuged at 70 relative centrifugal force (RCF) for 3 minutes at RT, and the supernatant was discarded. Pre-warmed InVitroGRO CP medium (BioreclamationlVT, Cat# S03316) was added to the cell pellet to gently re-suspend cells. The cells were seeded at the density of 5.8×10^4 cells per well to collagen I coated 96-well plate (Gibco, Cat. A1142803) with the InVitroGRO CP medium. All plates were incubated at 37° C. with 5% CO2 and 85% humidity.
At 20 hours after plating, the medium was changed to PHH culture medium (Dulbecco's Modified Eagle Medium (DMEM)/F12 (1:1) (Gibco, Cat. 11320-033), 10% fetal bovine serum (Gibco Cat. 10099141), 100 U/mL penicillin, 100 μg/mL streptomycin (Gibco, Cat. 151401-122), 5 ng/mL human epidermal growth factor (Invitrogen Cat. PHG0311L), 20 ng/mL dexamethasone (Sigma, Cat. D4902) and 250 ng/mL human recombinant insulin (Gibco, Cat. 12585-014)). And the cells were incubated at 37° C. with 5% CO2 and 85% humidity for 4 hours. The medium was then changed to pre-warmed PHH culture medium containing 4% polyethylene glycol (PEG) MW8000 (Sigma, Cat. P1458-50ML) and 1% DMSO (Sigma, Cat. D2650). 5.8×10^6 genomic equivalents of HBV were added into the medium.
At 24 hours post-infection, the cells were gently washed with PBS and refreshed with PHH culture medium supplemented with 1% DMSO, and 0.25 mg/mL Matrix gel (Corning, Cat. 356237) at 200 μL per well. All plates were immediately placed in at 37° C. CO2 incubator.
24 hours later, serial dilutions of compounds made with DMSO were further diluted with the same culture medium (PHH culture medium supplemented with 1% DMSO and 0.25 mg/mL Matrix gel as described above) before they were added to the cells to reach desired final compound concentrations and 1% DMSO concentration. The medium containing the compounds were refreshed every three days.
At 9 days post-compound treatment, extracellular HBsAg level were measured with Chemiluminescence Immuno Assay (CLIA) kit (Autobio, HBsAg Quantitative CLIA).
HBsAg IC50 values were derived from the dose-response curve using 4 parameter logistic curve fit method. The compounds of formula (I) have HBsAg IC50<20 μM, particularly <1 μM.

For orientation: IC50 means the concentration needed to halve the response being measured.

Molecules are shown by their SMILES.

With `Cc1cc(OCCOC2CC(C(=O)O)C2)ccc1C1=Nc2c(Cl)cccc2C(C)N1` (stereo not shown) [Example 22, 3-[2-[4-(8-chloro-4-methyl-3,4-dihydroquinazolin-2-yl)-3-methyl-phenoxy]ethoxy]cyclobutanecarboxylic Acid], the values for the IC50 in experiment [1] and in experiment [2] were 8430 nM and 670 nM, respectively.

In the case of `NC(=O)C1NC(c2ccc(Br)cc2)=Nc2c(Cl)cccc21` (stereo not shown) [Example 13, 2-(4-bromophenyl)-8-chloro-3,4-dihydroquinazoline-4-carboxamide], the IC50 came out at 70 nM in experiment [1] and 2840 nM in experiment [2].

With `COC(=O)C1NC(c2ccc(Br)cc2)=Nc2c(Cl)cccc21` (stereo not shown) [Example 12, methyl 2-(4-bromophenyl)-8-chloro-3,4-dihydroquinazoline-4-carboxylate], the results for the IC50 in experiment [1] and in experiment [2] were 330 nM and 1360 nM, respectively.

As for `COc1ccc(C2=Nc3c(Cl)cccc3C(C(=O)O)N2)cc1` (stereo not shown) [Example 4, 8-chloro-2-(4-methoxyphenyl)-3,4-dihydroquinazoline-4-carboxylic Acid], the IC50 in experiment [1] is 880 nM; in experiment [2], 1950 nM.

Regarding `O=C(O)C1NC(c2cccc(Br)c2)=Nc2cc(C(F)(F)F)ccc21` (stereo not shown) [Example 6, 2-(3-bromophenyl)-7-(trifluoromethyl)-3,4-dihydroquinazoline-4-carboxylic Acid], the IC50 amounted to 3430 nM in experiment [1] and 7180 nM in experiment [2].

On to `O=C(O)C1NC(c2ccc(Cl)cc2)=Nc2c(Cl)cccc21` (stereo not shown) [Example 3, 8-chloro-2-(4-chlorophenyl)-3,4-dihydroquinazoline-4-carboxylic Acid], for which the IC50 is 10300 nM in experiment [1] and 1500 nM in experiment [2].

With `COC(=O)c1ccc(-c2csc(C3=Nc4c(Cl)cccc4C(C)N3)n2)cc1` (stereo not shown) [Example 32, methyl 4-[2-(8-chloro-4-methyl-3,4-dihydroquinazolin-2-yl)thiazol-4-yl]benzoate], the IC50 amounted to 860 nM in experiment [1] and 24 nM in experiment [2].

`O=C(O)C1NC(c2ccccc2)=Nc2c(Cl)cccc21` (stereo not shown) [Example 2, 8-chloro-2-phenyl-3,4-dihydroquinazoline-4-carboxylic Acid]: the values for the IC50 in experiment [1] and in experiment [2] were 2990 nM and 415 nM, respectively.

On to `CC(C)C1NC(c2ccc(Br)cc2)=Nc2c(Cl)cccc21` (stereo not shown) [Example 36, 2-(4-bromophenyl)-8-chloro-4-isopropyl-3,4-dihydroquinazoline], for which the IC50 in experiment [1] is 6530 nM; in experiment [2], 42 nM.

With `Cc1cc(C2=Nc3c(Cl)cccc3C(C(=O)O)N2)ccc1Br` (stereo not shown) [Example 5, 2-(4-bromo-3-methyl-phenyl)-8-chloro-3,4-dihydroquinazoline-4-carboxylic Acid], the figures for the IC50 in experiment [1] and in experiment [2] were 560 nM and 4370 nM, respectively.

Consider `O=C(O)C1NC(c2ccc(Br)cc2)=Nc2cc(C(F)(F)F)ccc21` (stereo not shown) [Example 7, 2-(4-bromophenyl)-7-(trifluoromethyl)-3,4-dihydroquinazoline-4-carboxylic Acid], for which the values for the IC50 in experiment [1] and in experiment [2] were 3010 nM and 2310 nM, respectively.

On to `COc1ccc(C2=Nc3c(Cl)cccc3C(C(=O)NCCO)N2)cc1` (stereo not shown) [Example 16, 8-chloro-N-(2-hydroxyethyl)-2-(4-methoxyphenyl)-3,4-dihydroquinazoline-4-carboxamide], for which the IC50 in experiment [1] is 2030 nM; in experiment [2], 4540 nM.

`CC1NC(c2ccc(OCCOC3CC(C(=O)O)C3)cc2)=Nc2cc(C(F)(F)F)ccc21` (stereo not shown) [Example 19, 3-[2-[4-[4-methyl-7-(trifluoromethyl)-3,4-dihydroquinazolin-2-yl]phenoxy]ethoxy]cyclobutanecarboxylic Acid]: the IC50 stood at 4400 nM in experiment [1] and 7630 nM in experiment [2].

Consider `O=C(O)C1NC(c2ccc(Br)cc2)=Nc2c(Cl)cccc21` (stereo not shown) [Example 1, 2-(4-bromophenyl)-8-chloro-3,4-dihydroquinazoline-4-carboxylic Acid], for which the IC50 in experiment [1] worked out at 5650 nM; in experiment [2], 3070 nM.
